The text below walks through data of patent US6458778B1, “Estradienes” (Wyeth, priority 1997, dated 2002).

One test deals with Immature rats. In words: In vivo uterotropic activity. To be noted: for Uterine Weight (mg) ± SD: immature rats; for estrogenic activity in vivo (in words): uterine stimulation compared with vehicle.
Test [1] concerns the target T1, human estrogen receptor (hER-α) (Homo sapiens, UniProt P03372).
T1 sequence (P03372 1-595): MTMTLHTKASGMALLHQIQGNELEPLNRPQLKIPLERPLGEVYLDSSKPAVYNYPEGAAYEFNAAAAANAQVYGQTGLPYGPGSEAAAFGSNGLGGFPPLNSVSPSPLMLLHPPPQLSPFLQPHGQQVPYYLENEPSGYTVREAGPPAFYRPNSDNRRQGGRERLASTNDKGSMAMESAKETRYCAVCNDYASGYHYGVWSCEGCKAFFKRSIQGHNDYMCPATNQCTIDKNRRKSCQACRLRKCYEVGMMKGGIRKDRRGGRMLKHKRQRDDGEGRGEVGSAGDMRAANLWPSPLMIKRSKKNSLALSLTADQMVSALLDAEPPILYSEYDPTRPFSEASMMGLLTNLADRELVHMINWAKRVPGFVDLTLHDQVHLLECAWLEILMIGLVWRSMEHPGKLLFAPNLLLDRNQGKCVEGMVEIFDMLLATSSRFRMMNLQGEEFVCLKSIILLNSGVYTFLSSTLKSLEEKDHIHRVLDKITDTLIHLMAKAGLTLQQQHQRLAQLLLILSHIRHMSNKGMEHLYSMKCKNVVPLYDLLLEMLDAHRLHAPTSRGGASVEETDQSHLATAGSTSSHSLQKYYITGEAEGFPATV
In words: Estrogen receptor binding, whole cell test procedure. Particulars: Ki of 5B estimated.

Regarding `C[C@]12CC[C@H]3C(=CCC4=C3CC[C@@H](O)C4)[C@@H]1CCC2=O` [5A, estra-5(10),7-dien-3α-ol-17-one], the “Uterine Weight (mg) ± SD” value with Immature rats (1 μg, three days S.C.) was 28.7 ± 2.7 mg; with Immature rats (10 μg, three days S.C.), 33.3 ± 4.4 mg; in the test with Immature rats (100 μg, three days S.C.), 66.5 ± 4.7 mg; in the test on Immature rats (500 μg, three days S.C.), 78.9 ± 13.6 mg. In the test with Immature rats (in words, relative to approximately 30 μg/rat or 0.6 mg/kg for 5B), the “estimated EC50 compared with 5B” value is “somewhat lower”. In addition, in the test with Immature rats, the “estrogenic activity in vivo (in words)” value is recorded as “significant estrogenic activity”.
On to `C[C@]12CC[C@H]3C(=CCC4=C3CC[C@H](O)C4)[C@@H]1CCC2=O` [5B, estra-5(10),7-dien-3β-ol-17-one], for which the “Uterine Weight (mg) ± SD” value in the test with Immature rats (0.1 μg, three days S.C.) turned out to be 34.1 ± 6.2 mg; with Immature rats (1 μg, three days S.C.), 31.7 ± 6.6 mg; with Immature rats (10 μg, three days S.C.) it was 43.5 ± 6.9 mg; in the test with Immature rats (100 μg, three days S.C.), 79.7 ± 5.8 mg; in the test on Immature rats (500 μg, three days S.C.), 82.6 ± 8.6 mg. The “estrogenic activity in vivo (in words)” value with Immature rats is “significant estrogenic activity”.
Consider `C#C[C@]1(O)CC[C@H]2[C@@H]3CCc4cc(O)ccc4[C@H]3CC[C@@]21C` [Ethinyl Estradiol, ethinyl estradiol, reference compound], for which the “Uterine Weight (mg) ± SD” value in the test on Immature rats (0.5 μg, three days, positive control) was found to be 101.2 ± 2.8 mg.
Usually Ki stands for the equilibrium dissociation constant of an inhibitor or competing ligand from its target. For `C[C@]12CCc3c(ccc4cc(O)ccc34)[C@@H]1CCC2=O` [equilenen], in test [1], the Ki is 375 nM.
Turning to `C[C@]12CC[C@@H]3c4ccc(O)cc4CC[C@H]3[C@@H]1CCC2=O` [estrone, reference compound], in the test on Immature rats (in similar test procedures), the EC50 estimated is 0.2 mg/kg.
